According to ChEMBL document CHEMBL5385851, “Natural quinazolinones: From a treasure house to promising anticancer leads” (Eur J Med Chem, 2023):
In brackets after ≈: the same amount, converted by molar mass. One block for each compound: values may come before it.

Experiments:
Hs 683 [1] = assay: Cytotoxicity against human Hs 683 cells assessed as reduction in cell viability by MTT assay; assay type: functional, cell-based
[2] = Antiproliferative activity against human U373 cells assessed as reduction in cell viability; assay type: functional, cell-based; settings: U373 MG
A549 [3] = assay: Cytotoxicity against human A549 cells assessed as inhibition of cell growth measured after 72 hrs by MTT assay; assay type: functional, cell-based; settings: A549, 72 h
MCF7 [4] = assay: Cytotoxicity against human MCF7 assessed as reduction in cell viability incubated for 24 hrs by MTT assay; assay type: functional, cell-based; settings: MCF7, 24 h
SK-MEL-28 [5] = assay: Cytotoxicity against human SK-MEL-28 cells assessed as reduction in cell growth; assay type: functional, cell-based
PC-3 = assay: Cytotoxicity against human PC-3 cells assessed as inhibition of cell growth; assay type: functional, cell-based
AGS = assay: Cytotoxicity against human AGS cells assessed as reduction in cell viability incubated for 48 hrs by MTT assay; assay type: functional, cell-based
SNU1 = assay: Cytotoxicity against human SNU1 cells assessed as inhibition of cell growth measured after 72 hrs by cell titer glo assay; assay type: functional, cell-based; settings: SNU1, 72 h
KB = assay: Cytotoxicity against human KB cells assessed as cell growth inhibition; assay type: functional, cell-based
HCT-116 [6] = assay: Cytotoxicity against human HCT-116 cells assessed as reduction in cell viability incubated for 24 hrs by MTT assay; assay type: functional, cell-based; settings: HCT-116, 24 h
P388 [7] = assay: Cytotoxicity against mouse P388 cells assessed as reduction in cell growth; assay type: functional; settings: read-out: ED50 (the source's name)
A549 [8] = assay: Antiproliferative activity against human A549 cells assessed as cell growth inhibition measured after 72 hrs by MTT assay; assay type: functional, cell-based; settings: A549, 72 h
HCT-116 [9] = assay: Cytotoxicity against human HCT-116 cells assessed as reduction in cell growth incubated for 48 hrs by MTT assay; assay type: functional, cell-based; settings: HCT-116, 48 h
HepG2 [10] = assay: Cytotoxicity against human HepG2 cells assessed as cell growth inhibition measured after 48 hrs by MTT assay; assay type: functional, cell-based; settings: HepG2, 48 h
A-375 [11] = assay: Cytotoxicity against human A-375 cells assessed as reduction in cell growth incubated for 48 hrs by MTT assay; assay type: functional, cell-based; settings: A-375, 48 h
K562 [12] = assay: Cytotoxicity against human K562 cells assessed as reduction in cell viability incubated for 24 hrs by MTT assay; assay type: functional, cell-based; settings: K562, 24 h
SW 1116 = assay: Antiproliferative activity against human […] cells assessed as reduction in cell viability incubated for 24 hrs by MTT assay; assay type: functional, cell-based; settings: SW 1116, 24 h
A549 [13] = assay: Antiproliferative activity against human A549 cells assessed as cell growth inhibition incubated for 48 hrs by MTT assay; assay type: functional, cell-based; settings: A549, 48 h
HCT-116 [14] = assay: Antiproliferative activity against human HCT-116 cells assessed as inhibition of cell growth incubated for 48 hrs by MTT based colorimetric assay; assay type: functional; settings: HCT-116, 48 h
HepG2 [15] = assay: Antiproliferative activity against human HepG2 cells assessed as inhibition of cell growth incubated for 48 hrs by MTT based colorimetric assay; assay type: functional; settings: HepG2, 48 h
A-375 [16] = assay: Antiproliferative activity against human A-375 cells assessed as inhibition of cell growth incubated for 48 hrs by MTT based colorimetric method; assay type: functional; settings: A-375, 48 h
P388 [17] = assay: Cytotoxicity against mouse P388 cells assessed as inhibition of cell growth; assay type: functional, cell-based
K562 [18] = assay: Cytotoxicity against human K562 cells assessed as cell growth inhibition after 48 hrs by MTT assay; assay type: functional, cell-based; settings: K562, 48 h
HepG2 [19] = assay: Antiproliferative activity against human HepG2 cells assessed as reduction in cell viability incubated for 72 hrs by CCK-8 assay; assay type: functional, cell-based; settings: HepG2, 72 h
[20] = Antiproliferative activity against human U373 cells assessed as inhibition of cell growth measured after 72 hrs by CTG assay; assay type: functional, cell-based; settings: U373 MG
A549 [21] = assay: Antiproliferative activity against human A549 cells assessed as cell growth inhibition; assay type: functional, cell-based
MCF7 [22] = assay: Antiproliferative activity against human MCF7 cells assessed as reduction in cell viability incubated for 48 hrs by MTT assay; assay type: functional, cell-based; settings: MCF7, 48 h
SK-MEL-28 [23] = assay: Cytotoxicity against human SK-MEL-28 cells assessed as inhibition of cell growth incubated for 72 hrs by MTT assay; assay type: functional, cell-based; settings: SK-MEL-28, 72 h
[24] = target: Tryptophan 2,3-dioxygenase (Homo sapiens, UniProt P48775); assay: Inhibition of TDO (unknown origin) expressed in HEK293 cells; assay type: cell-based
Sequence of Tryptophan 2,3-dioxygenase (P48775 whole entry): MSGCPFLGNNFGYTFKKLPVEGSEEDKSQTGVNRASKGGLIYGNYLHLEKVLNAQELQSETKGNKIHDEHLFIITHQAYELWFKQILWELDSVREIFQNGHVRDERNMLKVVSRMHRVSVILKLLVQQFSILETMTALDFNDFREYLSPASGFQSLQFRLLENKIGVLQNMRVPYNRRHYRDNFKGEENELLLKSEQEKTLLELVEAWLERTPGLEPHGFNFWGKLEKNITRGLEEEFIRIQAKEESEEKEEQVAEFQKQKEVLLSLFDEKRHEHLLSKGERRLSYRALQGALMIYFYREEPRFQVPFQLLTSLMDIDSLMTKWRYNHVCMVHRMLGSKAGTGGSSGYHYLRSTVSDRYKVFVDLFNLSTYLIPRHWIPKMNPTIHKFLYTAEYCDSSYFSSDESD

[25] = target: Indoleamine 2,3-dioxygenase 1 (Homo sapiens, UniProt P14902); assay: Inhibition of IDO1 in human HeLa cells; assay type: cell-based
Sequence of Indoleamine 2,3-dioxygenase 1 (P14902 whole entry): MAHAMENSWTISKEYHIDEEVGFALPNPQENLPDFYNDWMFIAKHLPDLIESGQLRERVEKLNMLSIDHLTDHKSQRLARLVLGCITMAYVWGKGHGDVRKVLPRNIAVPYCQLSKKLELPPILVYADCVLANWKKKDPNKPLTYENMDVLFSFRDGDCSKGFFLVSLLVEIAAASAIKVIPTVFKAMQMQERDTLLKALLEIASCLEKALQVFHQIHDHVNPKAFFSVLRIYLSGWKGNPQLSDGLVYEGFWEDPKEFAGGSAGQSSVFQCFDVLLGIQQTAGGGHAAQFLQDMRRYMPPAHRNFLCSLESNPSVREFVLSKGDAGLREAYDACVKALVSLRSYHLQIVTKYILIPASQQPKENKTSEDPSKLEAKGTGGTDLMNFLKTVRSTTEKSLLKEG

Hs 683 [26] = assay: Cytotoxicity against human Hs 683 cells; assay type: functional, cell-based
[27] = Cytotoxicity against human U373 cells assessed as reduction in cell viability after 24 hrs by MTT assay; assay type: functional, cell-based; settings: U373 MG
A549 [28] = assay: Cytotoxicity against human A549 cells assessed as reduction in cell growth incubated for 5 days by MTT assay; assay type: functional, cell-based; settings: A549, 120 h
MCF7 [29] = assay: Cytotoxicity against human MCF7 cells assessed as reduction in cell viability by SRB assay; assay type: functional, cell-based
SK-MEL-28 [30] = assay: Cytotoxicity against human SK-MEL-28 cells assessed as reduction in cell viability measured after 24 hrs by MTT assay; assay type: functional, cell-based; settings: SK-MEL-28, 24 h
A549 [31] = assay: Cytotoxicity against human A549 cells assessed as reduction in cell growth; assay type: functional, cell-based
HCT-116 [32] = assay: Cytotoxicity against human HCT-116 cells assessed as cell growth inhibition incubated for 24 hrs by MTT based colorimetric assay; assay type: functional; settings: HCT-116, 24 h
HepG2 [33] = assay: Cytotoxicity against human HepG2 cells assessed as reduction in cell viability incubated for 24 hrs by MTT based colorimetric assay; assay type: functional; settings: HepG2, 24 h

SMILES: O=C1N[C@H]2c3[nH]c4ccccc4c3C[C@@H]1n1c2nc2ccccc2c1=O
IC50 (Hs 683 [1]): 50 µM | IC50 [2]: 50 µM | IC50 (A549 [3]): 39 µM | IC50 (MCF7 [4]): 43 µM | IC50 (SK-MEL-28 [5]): 73 µM

SMILES: COc1ccc2c(=O)n3c(nc2c1)-c1[nH]c2ccccc2c1CC3
IC50 (PC-3): 19.4 µM

SMILES: O=C(C[C@H]1NCCC[C@@H]1O)Cn1cnc2ccccc2c1=O
IC50 (AGS): 0.17 µg/mL (≈ 0.564 µM) | IC50 (SNU1): 0.05 µg/mL (≈ 0.166 µM)

SMILES: C=CC(C)(C)[C@@]12C[C@H]3c4nc5ccccc5c(=O)n4[C@H](C)C(=O)N3[C@@H]1N(C(C)=O)c1ccccc12
IC50 (KB): 107 µM

SMILES: O=Cc1c(-c2nc3ccccc3c(=O)[nH]2)[nH]c2ccccc12
IC50 (HCT-116 [6]): 12.1 µM

SMILES: CO[C@@]1(C)NC(=O)[C@@H](C[C@]2(O)c3ccccc3N3C(=O)[C@H](C)N[C@@H]32)n2c1nc1ccccc1c2=O
EC50 (P388 [7]): 13.8 µg/mL (≈ 29 µM)

IC50 (A549 [8]): 0.54 µM
SMILES: CC(C)[C@@H]1NC(=O)[C@@H](C[C@]2(O)c3ccccc3N3C(=O)[C@H](C)N[C@H]32)n2c1nc1ccccc1c2=O
IC50 (HCT-116 [9]): 123 µM | IC50 (HepG2 [10]): 53 µM | IC50 (A-375 [11]): 169 µM

SMILES: C[C@H]1C(=O)N2c3ccccc3[C@@]3(O)C[C@@H](n4cnc5ccccc5c4=O)C(=O)N1[C@@H]23
IC50 (K562 [12]): 0.035 µM | IC50 (SW 1116): 0.034 µM

IC50 (A549 [13]): 0.54 µM | IC50 (HCT-116 [14]): 114 µM | IC50 (HepG2 [15]): 58 µM | IC50 (A-375 [16]): 108 µM
SMILES: CC(=O)O[C@H](c1nc2ccccc2c(=O)n1[C@@H]1C[C@@]2(OC1=O)c1ccccc1N1C(=O)C(C)(C)N(O)[C@H]12)C(C)C

SMILES: O=C(c1cnc2ccccc2c1)c1nc2ccccc2c(=O)[nH]1
IC50 (P388 [17]): 2.3 µg/mL (≈ 7.63 µM)

SMILES: COc1ccc2c(=O)n3ccc4c5ccccc5[nH]c4c3nc2c1
IC50 (PC-3): 22.1 µM

SMILES: C[C@@]12NC(=O)[C@@H](CC13c1ccccc1N1C(=O)CN[C@@H]13)n1c2nc2ccccc2c1=O (stereo partly drawn)
IC50 (K562 [18]): 50 µM

IC50 (HepG2 [19]): 235 µM | IC50 (A549 [21]): > 100 µM | IC50 (MCF7 [22]): 91 µM
SMILES: CC1(C)C(=O)N2c3ccccc3[C@@]3(C[C@@H](n4cnc5ccccc5c4=O)C(=O)O3)[C@@H]2N1C=O
IC50 [20]: > 100 µM | IC50 (SK-MEL-28 [23]): > 100 µM

IC50 [24]: 0.06 µM | IC50 [25]: 0.02 µM
SMILES: CN(C)CCc1ccc2nc3n(c(=O)c2c1)C1C=CC(F)=CC1C3=O (stereo not drawn)

SMILES: C[C@@H]1N[C@H]2N(C1=O)c1ccccc1[C@@]2(O)C[C@@H]1C(=O)N[C@H](C)c2nc3ccccc3c(=O)n21
EC50 (P388 [7]): 16 µg/mL (≈ 35.9 µM)

SMILES: C=CC(C)(C)[C@@]12C[C@@]3(O)c4nc5ccccc5c(=O)n4[C@H](C)C(=O)N3[C@@H]1N(C(C)=O)c1ccccc12
IC50 (KB): 61.4 µM

SMILES: CC(C)[C@H]1NC(=O)[C@@H](C[C@]2(O)c3ccccc3N3C(=O)[C@H](C)N[C@H]32)n2c1nc1ccccc1c2=O
IC50 (Hs 683 [26]): > 100 µM | IC50 [27]: > 100 µM | IC50 (A549 [28]): > 100 µM | IC50 (MCF7 [29]): > 100 µM | IC50 (SK-MEL-28 [30]): > 100 µM | IC50 (A549 [31]): 0.54 µM | IC50 (HCT-116 [32]): 277 µM | IC50 (HepG2 [33]): 115 µM

IC50 [24]: 0.09 µM | IC50 [25]: 0.02 µM
SMILES: CN1CCN(CCc2ccc3nc4n(c(=O)c3c2)C2C=CC(F)=CC2C4=O)CC1 (stereo not drawn)
